Source: the NIST ThermoML archive (doi:10.1007/s10765-006-0079-5)
± gives the expanded uncertainty stated by the source.

Details: Liquid, Pulse-echo method

CCCCCCCCC [nonane]
speed of sound [m/s]
Details	293.15 K	313.15 K	333.15 K	353.15 K	373.15 K	393.15 K
100 kPa	1226.4 ± 5	1146.2 ± 4.7	1068.2 ± 4.3	992.62 ± 4	922.16 ± 3.8	–
10000 kPa	1288 ± 5.2	1212.8 ± 4.9	1140.9 ± 4.6	1072.6 ± 4.4	1005 ± 4.1	946.87 ± 3.9
20000 kPa	1344.8 ± 5.4	1274.2 ± 5.2	1206.9 ± 4.9	1142.6 ± 4.6	1081.3 ± 4.4	1022.9 ± 4.2
30000 kPa	1396.9 ± 5.6	1329.8 ± 5.4	1266.2 ± 5.1	1205.6 ± 4.9	1148.1 ± 4.7	1093.7 ± 4.4
40000 kPa	1445.1 ± 5.8	1380.9 ± 5.6	–	1262.5 ± 5.1	1208 ± 4.9	1156.6 ± 4.7
50000 kPa	1490.1 ± 6	1428.3 ± 5.8	1369.8 ± 5.5	1314.6 ± 5.3	1262.5 ± 5.1	1213.6 ± 4.9
60000 kPa	1532.5 ± 6.2	1472.7 ± 6	1416.3 ± 5.7	1363.2 ± 5.5	1313.1 ± 5.3	1266.1 ± 5.1
70000 kPa	1572.5 ± 6.4	1514.7 ± 6.1	1460.1 ± 5.9	1408.5 ± 5.7	1360.1 ± 5.5	1314.7 ± 5.3
80000 kPa	1610.6 ± 6.5	1554.4 ± 6.3	1501.3 ± 6.1	1451.3 ± 5.9	1404.3 ± 5.7	1360.4 ± 5.5
90000 kPa	1646.9 ± 6.7	1592 ± 6.4	1540.3 ± 6.2	1491.7 ± 6	1446.1 ± 5.8	1403.3 ± 5.7
100000 kPa	1681.6 ± 6.8	1628 ± 6.6	1577.4 ± 6.4	1529.8 ± 6.2	1485.5 ± 6	1443.7 ± 5.8
